In publication PMC6100082, “Pyridine-Ureas as Potential Anticancer Agents: Synthesis and In Vitro Biological Evaluation” (Molecules : A Journal of Synthetic Chemistry and Natural …, 2018):

How the values were obtained:
[1] = tested on: NCI 58 cell line panel; assay: NCI one-dose SRB assay, whole panel / subpanel summary; assay type: cell-based, human; settings: for Mean Growth Percent: One Dose Mean Graph, 1.00E-5 Molar
Experimental: (§1) The structures of all the newly prepared pyridine-ureas 8a–n were submitted to the National Cancer Institute (NCI) Developmental Therapeutic Program. Eight compounds 8b, 8d, 8e, 8i, 8j and 8l–n were selected to be examined for their in vitro growth inhibitory activity. The anticancer assays were carried out according to the protocol of the Drug Evaluation Branch, NCI, Bethesda. The selected pyridine-ureas were tested at one dose primary anticancer assay against a panel of approximately 58 cancer lines (concentration 10^−5 M). The tested human cancer cell lines emerged from nine different cancer subtypes: leukemia, colon, melanoma, ovarian, lung, CNS, renal, breast and prostate cancers. The sulforhodamine B (SRB) protein assay was adopted to estimate the cell viability and growth. The results were reported as mean-graph of the percentage growth of the treated cells, and presented as percentage growth inhibition (GI%) caused by the test compounds (Table 2).
(§2) The anticancer assays were performed in accordance with the protocol of the Drug Evaluation Branch, NCI, Bethesda. A 48 h drug exposure protocol was used and sulforhodamine B (SRB) protein assay was applied to estimate the cell viability and growth, as reported earlier.

[2] = tested on: SF-295; assay: NCI one-dose SRB assay (CNS Cancer); assay type: cell-based, human; settings: for Growth Percent: SF-295, 1.00E-5 Molar
Experimental: as §1, §2

[3] = tested on: SNB-19; assay: NCI one-dose SRB assay (CNS Cancer); assay type: cell-based, human; settings: for Growth Percent: SNB-19, 1.00E-5 Molar
Experimental: as §1, §2

[4] = tested on: SNB-75; assay: NCI one-dose SRB assay (CNS Cancer); assay type: cell-based, human; settings: for Growth Percent: SNB-75, 1.00E-5 Molar
Experimental: as §1, §2

[5] = tested on: UACC-257; assay: NCI one-dose SRB assay (Melanoma); assay type: cell-based, human; settings: for Growth Percent: UACC-257, 1.00E-5 Molar
Outline: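 At a fixed 10^−5 M, each compound is incubated with the cell line for 48 h before protein content is stained with sulforhodamine B to gauge viability and growth; results are presented as GI%.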

[6] = tested on: IGROV1; assay: NCI one-dose SRB assay (Ovarian Cancer); assay type: cell-based, human; settings: for Growth Percent: IGROV1, 1.00E-5 Molar
Experimental: as §1, §2

[7] = tested on: NCI/ADR-RES; assay: NCI one-dose SRB assay (Ovarian Cancer); assay type: cell-based, human; settings: for Growth Percent: 1.00E-5 Molar
Experimental: as §1, §2

[8] = tested on: OVCAR-3; assay: NCI one-dose SRB assay (Ovarian Cancer); assay type: cell-based, human; settings: for Growth Percent: OVCAR-3, 1.00E-5 Molar
Experimental: as §1, §2

[9] = tested on: OVCAR-4; assay: NCI one-dose SRB assay (Ovarian Cancer); assay type: cell-based, human; settings: for Growth Percent: OVCAR-4, 1.00E-5 Molar
Experimental: as §1, §2

[10] = tested on: OVCAR-5; assay: NCI one-dose SRB assay (Ovarian Cancer); assay type: cell-based, human; settings: for Growth Percent: OVCAR-5, 1.00E-5 Molar
Experimental: as §1, §2

[11] = tested on: OVCAR-8; assay: NCI one-dose SRB assay (Ovarian Cancer); assay type: cell-based, human; settings: for Growth Percent: OVCAR-8, 1.00E-5 Molar
Experimental: as §1, §2

[12] = tested on: SK-OV-3; assay: NCI one-dose SRB assay (Ovarian Cancer); assay type: cell-based, human; settings: for Growth Percent: SK-OV-3, 1.00E-5 Molar
Experimental: as §1, §2

[13] = tested on: 786-0; assay: NCI one-dose SRB assay (Renal Cancer); assay type: cell-based, human; settings: for Growth Percent: 786-0, 1.00E-5 Molar
Experimental: as §1, §2

[14] = tested on: A498; assay: NCI one-dose SRB assay (Renal Cancer); assay type: cell-based, human; settings: for Growth Percent: A498, 1.00E-5 Molar
Experimental: as §1, §2

[15] = tested on: RXF 393; assay: NCI one-dose SRB assay (Renal Cancer); assay type: cell-based, human; settings: for Growth Percent: RXF 393, 1.00E-5 Molar
Experimental: as §1, §2

[16] = tested on: SN12C; assay: NCI one-dose SRB assay (Renal Cancer); assay type: cell-based, human; settings: for Growth Percent: 1.00E-5 Molar
Experimental: as §1, §2

[17] = tested on: TK-10; assay: NCI one-dose SRB assay (Renal Cancer); assay type: cell-based, human; settings: for Growth Percent: TK-10, 1.00E-5 Molar
Experimental: as §1, §2

[18] = tested on: UO-31; assay: NCI one-dose SRB assay (Renal Cancer); assay type: cell-based, human; settings: for Growth Percent: UO-31, 1.00E-5 Molar
Experimental: as §1, §2

[19] = tested on: DU-145; assay: NCI one-dose SRB assay (Prostate); assay type: cell-based, human; settings: for Growth Percent: DU-145, 1.00E-5 Molar
Experimental: as §1, §2

[20] = tested on: PC-3; assay: NCI one-dose SRB assay (Prostate); assay type: cell-based, human; settings: for Growth Percent: PC-3, 1.00E-5 Molar
Experimental: as §1, §2

[21] = tested on: BT-549; assay: NCI one-dose SRB assay (Breast Cancer); assay type: cell-based, human; settings: for Growth Percent: BT-549, 1.00E-5 Molar
Experimental: as §1, §2

[22] = tested on: HS 578T; assay: NCI one-dose SRB assay (Breast Cancer); assay type: cell-based, human; settings: for Growth Percent: 1.00E-5 Molar
Experimental: as §1, §2

[23] = tested on: MCF7; assay: NCI one-dose SRB assay (Breast Cancer); assay type: cell-based, human; settings: for Growth Percent: MCF7, 1.00E-5 Molar
Experimental: as §1, §2

[24] = tested on: MDA-MB-231; assay: NCI one-dose SRB assay (Breast Cancer); assay type: cell-based, human; settings: for Growth Percent: MDA-MB-231/ATCC, 1.00E-5 Molar
Experimental: as §1, §2

[25] = tested on: MDA-MB-468; assay: NCI one-dose SRB assay (Breast Cancer); assay type: cell-based, human; settings: for Growth Percent: MDA-MB-468, 1.00E-5 Molar
Experimental: as §1, §2

[26] = tested on: T-47D; assay: NCI one-dose SRB assay (Breast Cancer); assay type: cell-based, human; settings: for Growth Percent: 1.00E-5 Molar
Experimental: as §1, §2

[27] = Homo sapiens, 10 μM, read-out: Percentage growth inhibition (GI%)

COc1ccc(-c2ccc(NC(=O)Nc3cccc(C(F)(F)F)c3)c(C)n2)cc1 [Compound 8b, 1-(6-(4-Methoxyphenyl)-2-methylpyridin-3-yl)-3-(3-(trifluoromethyl)phenyl) Urea]
inhibition at 10 µM ([1]; Homo sapiens, 10 μM, one dose, read-out: mean inhibition (mean % growth inhibition over NCI 58 cell line panel)): 43%
Mean Growth Percent [1]: 57.47%
inhibition at 10 µM ([2]; Homo sapiens, SF-295, 10 μM, read-out: Percentage growth inhibition (GI%)): 53%
Growth Percent [2]: 47.56%
inhibition at 10 µM ([3]; Homo sapiens, SNB-19, 10 μM, read-out: Percentage growth inhibition (GI%)): 33%
Growth Percent [3]: 67.81%
inhibition at 10 µM ([4]; Homo sapiens, SNB-75, 10 μM, read-out: Percentage growth inhibition (GI%)): 23%
Growth Percent [4]: 77.64%
inhibition at 10 µM ([5]; Homo sapiens, UACC-257, 10 μM, read-out: Percentage growth inhibition (GI%)): 39%
Growth Percent [5]: 61.43%
inhibition at 10 µM ([6]; Homo sapiens, IGROV-1, IGROV1, 10 μM, read-out: Percentage growth inhibition (GI%)): < 10%
Growth Percent [6]: 91.33%
Growth Percent [7]: 53.15%
inhibition at 10 µM [7, 27]: 47%
inhibition at 10 µM ([8]; Homo sapiens, OVCAR-3, 10 μM, read-out: Percentage growth inhibition (GI%)): 59%
Growth Percent [8]: 41.93%
inhibition at 10 µM ([9]; Homo sapiens, OVCAR-4, 10 μM, read-out: Percentage growth inhibition (GI%)): 58%
Growth Percent [9]: 42.94%
inhibition at 10 µM ([10]; Homo sapiens, OVCAR-5, 10 μM, read-out: Percentage growth inhibition (GI%)): 17%
Growth Percent [10]: 83.05%
inhibition at 10 µM ([11]; Homo sapiens, OVCAR-8, 10 μM, read-out: Percentage growth inhibition (GI%)): 39%
Growth Percent [11]: 61.89%
inhibition at 10 µM ([12]; Homo sapiens, SK-OV-3, 10 μM, read-out: Percentage growth inhibition (GI%)): 18%
Growth Percent [12]: 82.08%
Growth Percent [13]: 77.34%
inhibition at 10 µM ([13]; Homo sapiens, 786-0, 10 μM, read-out: Percentage growth inhibition (GI%)): 23%
Growth Percent [14]: 52.08%
inhibition at 10 µM ([14]; Homo sapiens, A498, 10 μM, read-out: Percentage growth inhibition (GI%)): 48%
inhibition at 10 µM ([15]; Homo sapiens, RXF 393, 10 μM, read-out: Percentage growth inhibition (GI%)): 15%
Growth Percent [15]: 85.91%
Growth Percent [16]: 67.99%
inhibition at 10 µM [16, 27]: 33%
inhibition at 10 µM ([17]; Homo sapiens, TK-10, 10 μM, read-out: Percentage growth inhibition (GI%)): 24%
Growth Percent [17]: 76.66%
inhibition at 10 µM ([18]; Homo sapiens, UO-31, 10 μM, read-out: Percentage growth inhibition (GI%)): 45%
Growth Percent [18]: 55.08%
Growth Percent [19]: 68.79%
inhibition at 10 µM ([19]; Homo sapiens, DU-145, 10 μM, read-out: Percentage growth inhibition (GI%)): 32%
inhibition at 10 µM ([20]; Homo sapiens, PC-3, 10 μM, read-out: Percentage growth inhibition (GI%)): 76%
Growth Percent [20]: 24.40%
Growth Percent [21]: 66.40%
inhibition at 10 µM ([21]; Homo sapiens, BT-549, 10 μM, read-out: Percentage growth inhibition (GI%)): 34%
Growth Percent [22]: 88.85%
inhibition at 10 µM [22, 27]: 12%
inhibition at 10 µM ([23]; Homo sapiens, MCF7, 10 μM, read-out: Percentage growth inhibition (GI%)): 59%
Growth Percent [23]: 41.47%
inhibition at 10 µM ([24]; Homo sapiens, MDA-MB-231, 10 μM, read-out: Percentage growth inhibition (GI%)): 32%
Growth Percent [24]: 68.55%
inhibition at 10 µM ([25]; Homo sapiens, MDA-MB-468, 10 μM, read-out: Percentage growth inhibition (GI%)): 73%
Growth Percent [25]: 27.53%
Growth Percent [26]: 26.51%
inhibition at 10 µM ([26]; Homo sapiens, T47D, 10 μM, read-out: Percentage growth inhibition (GI%)): 74%
melting point: 189 to 191 °C

1-(4-Chloro-4-(trifluoromethyl)cyclohexa-2,5-dien-1-yl)-3-(6-(3,4-dimethoxyphenyl)-2-methylpyridin-3-yl)urea [Compound 8l]
Mean Growth Percent [1]: 68.99%
Percentage growth inhibition (GI%) ([2]; SF-295, 10 μM): 29%
Growth Percent [2]: 71.54%
Percentage growth inhibition (GI%) ([3]; SNB-19, 10 μM): 22%
Growth Percent [3]: 78.75%
Percentage growth inhibition (GI%) ([4]; SNB-75, 10 μM): 20%
Growth Percent [4]: 80.45%
Percentage growth inhibition (GI%) ([5]; UACC-257, 10 μM): 44%
Growth Percent [5]: 56.26%
Percentage growth inhibition (GI%) ([6]; IGROV1, 10 μM): 17%
Growth Percent [6]: 83.06%
Percentage growth inhibition (GI%) ([7]; 10 μM): 31%
Growth Percent [7]: 69.67%
Percentage growth inhibition (GI%) ([8]; OVCAR-3, 10 μM): 43%
Growth Percent [8]: 57.00%
Percentage growth inhibition (GI%) ([9]; OVCAR-4, 10 μM): 25%
Growth Percent [9]: 75.13%
Percentage growth inhibition (GI%) ([10]; OVCAR-5, 10 μM): 15%
Growth Percent [10]: 85.15%
Percentage growth inhibition (GI%) ([11]; OVCAR-8, 10 μM): 19%
Growth Percent [11]: 81.32%
Percentage growth inhibition (GI%) ([12]; SK-OV-3, 10 μM): 16%
Growth Percent [12]: 84.22%
Percentage growth inhibition (GI%) ([13]; 786-0, 10 μM): 25%
Growth Percent [13]: 75.10%
Percentage growth inhibition (GI%) ([14]; A498, 10 μM): 43%
Growth Percent [14]: 57.69%
Percentage growth inhibition (GI%) ([15]; RXF 393, 10 μM): 28%
Growth Percent [15]: 72.65%
Percentage growth inhibition (GI%) ([16]; 10 μM): 22%
Growth Percent [16]: 78.52%
Percentage growth inhibition (GI%) ([17]; TK-10, 10 μM): 12%
Growth Percent [17]: 88.19%
Percentage growth inhibition (GI%) ([18]; UO-31, 10 μM): 28%
Growth Percent [18]: 72.37%
Percentage growth inhibition (GI%) ([19]; DU-145, 10 μM): 20%
Growth Percent [19]: 80.60%
Percentage growth inhibition (GI%) ([20]; PC-3, 10 μM): 67%
Growth Percent [20]: 33.54%
Percentage growth inhibition (GI%) ([21]; BT-549, 10 μM): 12%
Growth Percent [21]: 88.97%
Percentage growth inhibition (GI%) ([22]; 10 μM): 19%
Growth Percent [22]: 81.01%
Percentage growth inhibition (GI%) ([23]; MCF7, 10 μM): 42%
Growth Percent [23]: 58.28%
Percentage growth inhibition (GI%) ([24]; MDA-MB-231, 10 μM): 12%
Growth Percent [24]: 88.41%
Percentage growth inhibition (GI%) ([25]; MDA-MB-468, 10 μM): 52%
Growth Percent [25]: 48.57%
Percentage growth inhibition (GI%) ([26]; 10 μM): 51%
Growth Percent [26]: 49.20%
